{"source": "patent US9914698B2", "about": "“Stearoyl amino acid salt and preparation method and application thereof” (Shanghai Jiaotong University School of Medicine, priority 2014, dated 2018)", "key": {"[1]": {"test_system": "gerbil model with global ischemia reperfusion injury", "assay": "Neurobehavioral scores of acute cerebral ischemia reperfusion model", "type": "in vivo", "conditions": "ischemic model group 3.1+/−0.32", "description": "(§1) Taking N-stearoyl amino acid potassium NsTyr-2K as an example, a gerbil model with global ischemia reperfusion injury was used to assess the protective role of NsTyr-2K against neurobehavioral disorder caused by cerebral ischemia-reperfusion injury by examining the changing behavioral indexes such as spatial, learning and cognitive functions in the perspective of overall animals during passive dark avoidance test and Morris water maze test."}, "[2]": {"test_system": "gerbil model with global ischemia reperfusion injury", "assay": "Dark avoidance test", "type": "in vivo", "conditions": "compared with the ischemia group; NsTyr-2K 15, 30, 60 mg/kg; nimotop positive control", "description": "as §1\nDark avoidance test was used to evaluate the effects of NsTyr-2K influence on animal learning and memory abilities."}, "[3]": {"test_system": "obese mouse model", "assay": "Administration test in obese mouse model (weight, food intake)", "type": "in vivo, C57BL/6 mice", "conditions": "for obese mouse weight: four weeks", "procedure": "2. Method: 60 C57BL/6 mice (aged 3 weeks, male, with a weight of 8.3 g each) were adaptively fed with 12% kcal normal diet for one week, and randomly divided into 6 groups, each consisting of 10 mice. One group (ND) continued to be fed with normal diet, the rest five groups (HFD I˜V) were fed with 45% kcal high-fat diet.\nIn the whole test process the mice kept raised in the following environment: temperature: 23±3° C.; humidity: 50±5%; bright and dim alternating cycle: 12 h/12 h; freely available to diet and drinking water in the whole process.\n2. Method: ND and HFD I were respectively taken as normal and high-fat diet blank control groups, and were treated with 0.5% sodium carboxymethyl cellulose solution (5 ml/kg/day); HFD II˜IV were taken as groups of recipients, and were treated with NST-2K (20, 60, 100 mg/kg/day); HFD V was taken as a positive control group, and treated with Orlistat (100 mg/kg/day). All the above drugs dissolved in aqueous solution of 0.5% sodium carboxymethyl cellulose and were administered. The administration remained four weeks. In each week average weight and food intake were kept in record until the phase of administration ended."}}, "data": [{"compound": "CCCCCCCCCCCCCCCCCC(=O)N[C@@H](Cc1ccc(O)cc1)C(=O)[O-].[K+]", "note": "[NsTyr-2K, N-stearoyl tyrosine potassium salt]", "values": [{"measurement": "neurobehavioral score", "setting": "[1]; 15 mg/kg", "value": "1.76+/−0.48"}, {"measurement": "neurobehavioral score", "setting": "[1]; 30 mg/kg", "value": "1.25+/−0.31"}, {"measurement": "error counts within 5 min", "setting": "[2]", "value": "much fewer error counts within 5 min"}, {"measurement": "latency", "setting": "[2]", "value": "much prolonged latency"}, {"measurement": "obese mouse weight", "setting": "[3]; 100 mg/kg/day", "value": "can reduce obese mouse weight"}, {"measurement": "appetite (average daily food intake)", "setting": "[3]; 4-week administration, high-fat diet groups", "value": "neither NST-2K nor Orlistat suppressed appetite"}, {"measurement": "obese mouse weight", "setting": "[3]; 20, 60 mg/kg/day", "value": "can inhibit weight gain in obese mice"}]}]}
